Test results taken from the supplement of paper PMC11061612.

Key:
[1] = tested on: WSU-DLCL2 (B-Cell Non-Hodgkin's Lymphoma); test: Bliss excess, mean over the matrix (fraction); higher = more synergy
Method in brief: (§1)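 Cell lines in DMEM/F12 or RPMI with 10% FBS were plated in 1536-well plates, held 24 hours at 37°C, 5% CO2, then given two-drug dose matrices for 72 hours (DMSO typically 0.2%). Viability was read by CellTiter-Glo 2.0 luminescence and scaled as inhibition from 0 (vehicle wells) to 1 (blank wells). Combination Emax is the second-highest inhibition in the matrix; Bliss excess is observed combination effect minus expected EA + EB − EA·EB, EA and EB being single-agent effects.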

[2] = tested on: SW48 (Colorectal Carcinoma); test: as above
Method in brief: as §1

H4 (Low Grade Glioma) [3] = test: as above
Method in brief: as §1

[4] = tested on: BICR78 (Oral Cavity Carcinoma); test: as above
Method in brief: as §1

[5] = tested on: SK-UT-1 (Other Solid Carcinomas); test: as above
Method in brief: as §1

[6] = tested on: P31-FUJ (Acute Myeloid Leukemia); test: as above
Method in brief: as §1

[7] = tested on: FU-OV-1 (Ovarian Carcinoma); test: as above
Method in brief: as §1

[8] = tested on: SLVL (B-Cell Non-Hodgkin's Lymphoma); test: as above
Method in brief: as §1

Saos-2 (Osteosarcoma) = test: as above
Method in brief: as §1

[9] = tested on: TC-YIK (Other Solid Carcinomas); test: as above
Method in brief: as §1

[10] = tested on: MEG-01 (Chronic Myelogenous Leukemia); test: as above
Method in brief: as §1

[11] = tested on: DOK (Oral Cavity Carcinoma); test: as above
Method in brief: as §1

EW-22 (Ewing's Sarcoma) [12] = test: as above
Method in brief: as §1

HCC38 (Breast Carcinoma) = test: combination Emax (second highest fraction inhibited in the dose matrix, 72 h); higher = more inhibition; extreme values may be limits of the assay
Method in brief: as §1

H4 (Low Grade Glioma) [13] = test: as above
Method in brief: as §1

[14] = tested on: SK-UT-1 (Other Solid Carcinomas); test: as above
Method in brief: as §1

[15] = tested on: YT (Other Blood Carcinomas); test: as above
Method in brief: as §1

[16] = tested on: CAL-39 (Other Solid Carcinomas); test: as above
Method in brief: as §1

EW-22 (Ewing's Sarcoma) [17] = test: as above
Method in brief: as §1

CS1 (Chondrosarcoma) = test: as above
Method in brief: as §1
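Throughout, for Bliss excess, mean over the matrix: after 72 h of two-drug dosing.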

Compound | Bliss excess [1] | Bliss excess [2] | Bliss excess (H4 (Low Grade Glioma) [3]) | Bliss excess [4] | Bliss excess [5] | Bliss excess [6] | Bliss excess [7] | Bliss excess [8] | Bliss excess (Saos-2 (Osteosarcoma)) | Bliss excess [9] | Bliss excess [10] | Bliss excess [11] | Bliss excess (EW-22 (Ewing's Sarcoma) [12]) | combination Emax (HCC38 (Breast Carcinoma)) | combination Emax (H4 (Low Grade Glioma) [13]) | combination Emax [14] | combination Emax [15] | combination Emax [16] | combination Emax (EW-22 (Ewing's Sarcoma) [17]) | combination Emax (CS1 (Chondrosarcoma))
CC1(C)CCC(CN2CCN(c3ccc(C(=O)NS(=O)(=O)c4ccc(NCC5CCOCC5)c([N+](=O)[O-])c4)c(Oc4cnc5[nH]ccc5c4)c3)CC2)=C(c2ccc(Cl)cc2)C1 [Venetoclax] + CS(=O)(=O)CCNCc1ccc(-c2ccc3ncnc(Nc4ccc(OCc5cccc(F)c5)c(Cl)c4)c3c2)o1 [Lapatinib] (first compound max 1 µM, 7x7, partner max 10 µM) | 0.0902 | 0.0163 | -0.0188 | -0.0451 | -0.0286 | 0.0811 | -0.0697 | 0.017 | -0.0131 | -0.0035 | -0.0101 | -0.0301 | 0.0031 | 0.169 | 0.171 | 0.458 | 0.295 | 0.913 | 0.214 | 0.411
O=C(c1cc(Cc2n[nH]c(=O)c3ccccc23)ccc1F)N1CCN(C(=O)C2CC2)CC1 [Olaparib] + CC1(C)CCC(CN2CCN(c3ccc(C(=O)NS(=O)(=O)c4ccc(NCC5CCOCC5)c([N+](=O)[O-])c4)c(Oc4cnc5[nH]ccc5c4)c3)CC2)=C(c2ccc(Cl)cc2)C1 [Venetoclax] (first compound max 10 µM, 7x7, partner max 1 µM) | 0.0235 | -0.0239 | -0.011 | -0.0733 | 0.0047 | -0.0121 | -0.0467 | 0.0864 | -0.0289 | -0.0304 | -0.0377 | -0.0426 | 0.0348 | 0.179 | 0.267 | 0.162 | 0.276 | 0.0578 | 0.921 | 0.15
Cc1c2c(nn1C)CSCc1cc(n(C)n1)CSc1cc(c3ccccc3c1)OCCCc1c(C(=O)O)n(C)c3c-2c(Cl)ccc13 [AZD5991] + CC(=O)O[C@H]1C(=O)[C@@]2(C)[C@H]([C@H](OC(=O)c3ccccc3)[C@]3(O)C[C@H](OC(=O)[C@H](O)[C@@H](NC(=O)c4ccccc4)c4ccccc4)C(C)=C1C3(C)C)[C@]1(OC(C)=O)CO[C@@H]1C[C@@H]2O [Paclitaxel] (first compound max 1 µM, 7x7, partner max 3 µM) | -0.0151 | -0.0091 | 0.0003 | -0.0412 | 0.008 | -0.0253 | 0.0262 | -0.0181 | 0.0358 | -0.0709 | 0.12 | -0.0004 | -0.0122 | 0.571 | 0.995 | 0.884 | 1 | 0.994 | 0.871 | 0.652
N#Cc1cnc(Nc2cc(NC[C@H]3CNCCO3)c(C(F)(F)F)cn2)cn1 [SRA737] + O=c1[nH]cc(F)c(=O)[nH]1 [5-Fluorouracil] (first compound max 10 µM, 7x7, partner max 20 µM) | 0.114 | -0.0588 | -0.0189 | 0.0904 | -0.0052 | -0.0034 | -0.0284 | -0.0551 | -0.0179 | 0.0119 | -0.0518 | 0.0382 | 0.0416 | 0.507 | 0.619 | 0.799 | 0.993 | 0.345 | 0.736 | 0.405
Cc1cc2ncnn2cc1Nc1ncc2c(n1)n(C1CCOCC1)c(=O)n2C [AZD7648] + COc1cc([C@@H]2c3cc4c(cc3[C@@H](O[C@@H]3O[C@@H]5CO[C@@H](C)O[C@H]5[C@H](O)[C@H]3O)[C@H]3COC(=O)[C@H]23)OCO4)cc(OC)c1O [Etoposide] (first compound max 10 µM, 7x7, partner max 10 µM) | 0.185 | 0.0487 | 0.0976 | 0.0789 | 0.117 | 0.101 | -0.0047 | 0.0824 | 0.054 | 0.0886 | 0.102 | 0.109 | 0.112 | 0.486 | 0.756 | 0.926 | 0.974 | 0.701 | 0.938 | 0.649
Cc1c2c(nn1C)CSCc1cc(n(C)n1)CSc1cc(c3ccccc3c1)OCCCc1c(C(=O)O)n(C)c3c-2c(Cl)ccc13 [AZD5991] + Nc1ccn([C@@H]2O[C@H](CO)[C@@H](O)C2(F)F)c(=O)n1 [Gemcitabine] (first compound max 1 µM, 7x7, partner max 0.3 µM) | 0.0128 | -0.0377 | -0.0393 | -0.0851 | -0.0367 | 0.0115 | -0.0321 | -0.014 | 0.0374 | -0.0315 | -0.0412 | -0.0008 | -0.0071 | 0.711 | 0.949 | 0.904 | 1 | 0.899 | 0.933 | 0.445
C[C@@H](Oc1cc(-c2cnn(C3CCNCC3)c2)cnc1N)c1c(Cl)ccc(F)c1Cl [Crizotinib] + Cn1cnc2c(F)c(Nc3ccc(Br)cc3Cl)c(C(=O)NOCCO)cc21 [Selumetinib] (first compound max 10 µM, 7x7, partner max 10 µM) | -0.0458 | -0.0323 | 0.0034 | 0.0006 | 0.0041 | -0.0781 | 0.0748 | -0.0414 | -0.0337 | -0.0663 | 0.0179 | 0.017 | -0.0226 | 0.0593 | 0.787 | 0.331 | 0.621 | 0.866 | 0.78 | 0.619
C[C@@H]1COCCN1c1cc(C2([S@](C)(=N)=O)CC2)nc(-c2ccnc3[nH]ccc23)n1 [AZD6738] + C1CC(C1)(C(=O)[O-])C(=O)[O-].N.N.[Pt+2] [Carboplatin] (first compound max 10 µM, 7x7, partner max 10 µM) | 0.0217 | -0.0577 | 0.0025 | -0.0459 | -0.0214 | -0.0078 | -0.0576 | -0.0419 | -0.0302 | -0.0631 | -0.0513 | 0.0086 | -0.0301 | 0.52 | 0.708 | 0.779 | 0.76 | 0.609 | 0.851 | 0.548
C[C@@H](Nc1cc(F)cc(F)c1)c1cc(C(=O)N(C)C)cc2c(=O)cc(N3CCOCC3)oc12 [AZD8186] + C1CN(CCC1(C(=O)N[C@@H](CCO)C2=CC=C(C=C2)Cl)N)C3=NC=NC4=C3C=CN4 [AZD5363] (first compound max 10 µM, 7x7, partner max 10 µM) | -0.0155 | -0.024 | -0.0049 | -0.0269 | 0.0224 | -0.03 | -0.117 | 0.0553 | 0.0104 | -0.0292 | -0.0906 | -0.0231 | -0.0197 | 0.262 | 0.597 | 0.344 | 0.247 | 0.667 | 0.45 | 0.264
CN(CCO)CC[C@H](CSc1ccccc1)Nc1ccc(S(=O)(=O)NC(=O)c2ccc(N3CCC([C@@H](O)c4ccccc4-c4ccc(Cl)cc4)CC3)cc2)cc1S(=O)(=O)C(F)(F)F [AZD4320] + CC(=O)O[C@H]1C(=O)[C@@]2(C)[C@H]([C@H](OC(=O)c3ccccc3)[C@]3(O)C[C@H](OC(=O)[C@H](O)[C@@H](NC(=O)c4ccccc4)c4ccccc4)C(C)=C1C3(C)C)[C@]1(OC(C)=O)CO[C@@H]1C[C@@H]2O [Paclitaxel] (first compound max 1 µM, 7x7, partner max 3 µM) | -0.0101 | -0.003 | -0.0229 | 0.0354 | -0.0007 | -0.0004 | 0.0924 | 0.032 | 0.0937 | 0.0183 | -0.0006 | 0.0565 | 0.0397 | 0.77 | 1 | 0.977 | 1 | 1 | 0.999 | 0.961
